The values below come from PubChem BioAssay (NCI).

Some test systems named below: DU-145 prostate; OVCAR-3 ovarian; SNB-75 CNS; HCT-15 colon; NCI-H460 lung; SF-295 CNS; K-562 leukemia; RXF 393 renal; SF-539 CNS; SW-620 colon.
Common to all, as to assay: NCI anticancer screen, dose series, 48 h

The structures appear in SMILES notation.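 Tested at 5 concentrations; 48 h exposure; 96-well plates; endpoints linearly interpolated, else capped at highest concentration. The concentration for 50% growth inhibition is given as GI50. TGI is the concentration that stops growth completely.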

As for `N#CN1CC[C@H](C(=O)Nc2cc3cc(C(N)=O)ccc3cn2)C1`, the GI50 is 357 nM with DU-145 prostate; under 18.6 nM with OVCAR-3 ovarian; 64.9 nM with SNB-75 CNS; 302 nM in the assay on HCT-15 colon; 188 nM with NCI-H460 lung; 392 nM in the assay on SF-295 CNS. The GI50 in the assay with K-562 leukemia was 131 nM; with RXF 393 renal it was 42.6 nM; in the assay on SF-539 CNS it was 58.9 nM; with SW-620 colon it was 96.9 nM. The TGI in the assay on DU-145 prostate is over 65.4 µM; with OVCAR-3 ovarian, 0.206 µM; with SNB-75 CNS it was 0.512 µM; with HCT-15 colon, over 100 µM; in the assay on NCI-H460 lung, over 44 µM; in the assay with SF-295 CNS it was over 47.7 µM. In addition, the TGI in the assay with K-562 leukemia was over 54.2 µM; in the assay with RXF 393 renal it was 0.21 µM; in the assay on SF-539 CNS, 0.319 µM; in the assay on SW-620 colon, over 84.9 µM.

With `Cc1cc(Cl)ccc1Nc1nc(C(F)(F)F)ccc1C(=O)N/N=C/c1ccccc1Cl`, the GI50 in the assay on DU-145 prostate is 1620 nM; with OVCAR-3 ovarian it was 239 nM; in the assay with SNB-75 CNS, 2290 nM; in the assay with HCT-15 colon, 438 nM; in the assay with NCI-H460 lung, 850 nM; in the assay on SF-295 CNS, 691 nM. The GI50 with K-562 leukemia was 588 nM; with RXF 393 renal, 1480 nM; in the assay with SF-539 CNS, 1220 nM; with SW-620 colon, 667 nM. In addition, the TGI is over 27.6 µM with DU-145 prostate; 2.15 µM in the assay with OVCAR-3 ovarian; over 29.3 µM with SNB-75 CNS; 16.5 µM in the assay with HCT-15 colon; 4.84 µM in the assay on NCI-H460 lung; 4.12 µM in the assay with SF-295 CNS. Also, the TGI worked out at 4.41 µM in the assay with RXF 393 renal, 3.6 µM in the assay with SF-539 CNS and 6.02 µM with SW-620 colon.

Turning to `C#COc1cccc(Nc2ncnc3cc(NC(=O)[C@H](C)Cl)ccc23)c1`, the GI50 was 6090 nM in the assay with DU-145 prostate; 2170 nM in the assay with OVCAR-3 ovarian; 2600 nM in the assay with SNB-75 CNS; 2500 nM in the assay with HCT-15 colon; 2180 nM in the assay on NCI-H460 lung; 2280 nM in the assay with SF-295 CNS. The GI50 with K-562 leukemia is 2030 nM; with RXF 393 renal, 3340 nM; in the assay with SF-539 CNS, 2850 nM; in the assay on SW-620 colon, 2580 nM. The TGI with DU-145 prostate was over 62.5 µM; in the assay with OVCAR-3 ovarian, over 62.5 µM; in the assay with SNB-75 CNS it was over 62.5 µM; in the assay on HCT-15 colon, over 62.5 µM; with NCI-H460 lung it was over 62.5 µM; with SF-295 CNS it was 61.1 µM. The TGI is over 62.5 µM in the assay on K-562 leukemia, 39.3 µM in the assay on RXF 393 renal, over 62.5 µM in the assay with SF-539 CNS and over 62.5 µM in the assay on SW-620 colon.

Turning to `C=C(C)C(=O)O[C@@H]1C/C(C)=C\[C@H](OC(C)=O)C[C@](C)(O)/C=C2/OC(=O)C(COC(C)=O)=C21`, the TGI was 7.13 µM with DU-145 prostate; 16 µM with SNB-75 CNS; 0.786 µM with HCT-15 colon; 2.35 µM with NCI-H460 lung; 23.9 µM with SF-295 CNS; 0.879 µM in the assay on K-562 leukemia. For the same molecule, the TGI was over 28.5 µM in the assay on SF-539 CNS and 1.93 µM with SW-620 colon.

With `O=C(CC(=O)c1cccc(Cl)c1)c1cccc(Cl)c1`, the GI50 with DU-145 prostate is 2770 nM; in the assay with OVCAR-3 ovarian, 1670 nM; with SNB-75 CNS, 3090 nM; in the assay on HCT-15 colon, 1860 nM; in the assay on NCI-H460 lung, 950 nM; in the assay on SF-295 CNS, 1010 nM. Further, the GI50 in the assay on K-562 leukemia was 1120 nM; with RXF 393 renal, 3690 nM; with SF-539 CNS, 2910 nM; in the assay with SW-620 colon, 2140 nM. The TGI is over 100 µM with DU-145 prostate; 6.09 µM with OVCAR-3 ovarian; over 100 µM in the assay with SNB-75 CNS; over 100 µM in the assay with HCT-15 colon; over 100 µM in the assay on NCI-H460 lung; over 100 µM in the assay with SF-295 CNS. The TGI in the assay with K-562 leukemia, in the assay on RXF 393 renal, with SF-539 CNS and in the assay on SW-620 colon was over 100 µM each time.

As to `COc1ccc(C2C=C(c3ccc(Cl)cc3)N=C3SC=C(C)N32)c(Br)c1` (centres undefined), the GI50 in the assay with DU-145 prostate was 2680 nM; with OVCAR-3 ovarian, 2360 nM; with SNB-75 CNS it was 3770 nM; in the assay on HCT-15 colon, 2420 nM; in the assay with NCI-H460 lung it was 2240 nM; in the assay on K-562 leukemia, 4020 nM. Moreover, the GI50 in the assay on RXF 393 renal was 2390 nM; with SF-539 CNS it was 2150 nM; with SW-620 colon it was 2850 nM. Also, the TGI in the assay with DU-145 prostate is 7.26 µM; in the assay with OVCAR-3 ovarian it was 5.48 µM; in the assay with SNB-75 CNS, 16.7 µM; in the assay on HCT-15 colon, 12.2 µM; in the assay on NCI-H460 lung, 5.87 µM; in the assay on K-562 leukemia it was over 100 µM. The values for the TGI in the assay on RXF 393 renal, in the assay on SF-539 CNS and in the assay with SW-620 colon were 9.59 µM, 5.37 µM and 10.3 µM, respectively.

On to `CCOC(=O)c1cnn2c3ccccc3n(S(=O)(=O)c3ccc(OC)cc3)c12`, for which the GI50 is 395 nM in the assay on DU-145 prostate; 181 nM in the assay on OVCAR-3 ovarian; 119 nM with HCT-15 colon; 753 nM in the assay with NCI-H460 lung; 255 nM with SF-295 CNS; 55.3 nM in the assay with K-562 leukemia. In addition, the GI50 in the assay on RXF 393 renal is 232 nM; in the assay on SF-539 CNS, 252 nM; with SW-620 colon it was 269 nM. Further, the TGI is over 24.2 µM with DU-145 prostate; 0.493 µM with OVCAR-3 ovarian; over 100 µM with HCT-15 colon; over 100 µM in the assay on NCI-H460 lung; over 100 µM with K-562 leukemia; 0.868 µM in the assay with SF-539 CNS. This molecule showed a TGI in the assay on SW-620 colon of over 100 µM.

On to `O=C(/C=C/C12c3ccccc3C(c3ccccc31)C1C(=O)NC(=O)C12)c1ccc(Cl)cc1` (centres undefined), for which the GI50 was 1670 nM in the assay with DU-145 prostate; 1630 nM in the assay on OVCAR-3 ovarian; 1100 nM with SNB-75 CNS; 1470 nM in the assay on HCT-15 colon; 1800 nM in the assay with NCI-H460 lung; 1990 nM in the assay with K-562 leukemia. The GI50 with RXF 393 renal is 1200 nM; with SF-539 CNS, 1510 nM; in the assay with SW-620 colon, 1890 nM. In addition, the TGI was 3.26 µM with DU-145 prostate; 3.26 µM in the assay with OVCAR-3 ovarian; 2.32 µM in the assay with SNB-75 CNS; 4.07 µM in the assay with HCT-15 colon; 4.31 µM with NCI-H460 lung; over 100 µM in the assay on K-562 leukemia. Moreover, the TGI with RXF 393 renal is 2.56 µM; in the assay with SF-539 CNS, 2.86 µM; in the assay on SW-620 colon, 4.26 µM.
